# Test results published in US20230106943A1, “ENGINEERED ANTIMICROBIAL PEPTIDES AND USAGE THEREOF” (Peptilogics, Inc., priority 2021, published 2023).
# Several values for one entry are separate records, joined by “and”; a condition that tells them apart may be missing. Equal entries are not always repeated. No end group written: not given here.
# How the values were obtained:
# Format in all cases: physicochemical
# [1] = Stability of solid SEQ ID NO: 1 stored at −20° C. (HPLC area percent)
# Experimental: A solid form of SEQ ID NO: 1 from Batch 2K18005 was dissolved and assayed. FIG. 1 depict the chromatograph of SEQ ID NO:1 at 1.0 mg/mL. The retention time at 14.38 and relative retention time at 1.00 (RTT) corresponded to SEQ ID NO: 1. The area percent of the SEQ ID NO: 1 was 99.09. […] The area percent of the impurity was 0.91. FIG. 1 depicts SEQ ID NO: 1 at time (t)=0 for a baseline prior to storage. SEQ ID NO: 1 is stable after 3 years of storage at −20° C. as a dry powder in a glass vial. FIG. 2 depicts the HPLC chromatograph after 3 years of storage SEQ ID NO: 1 in solid form at −20° C. (Batch 2K18005). The retention time at 18.03 and relative retention time at 1.00 (RTT) corresponded to SEQ ID NO: 1. The area percent of the SEQ ID NO: 1 was 97.87.
# [2] = Example 4 stability of concentrated solutions: UV-Vis Assay (method 78933)
# Experimental: (§1) The peptide formulation of SEQ ID NO: 1 dissolved in a saline solution with a pH of 5.0±0.1 was tested for stability under either −20° C. or 40° C. with 75% relative humidity (RH). […]
# [3] = Stability of 5 mg/mL SEQ ID NO: 1 solution pH 5.0 stored at 40° C. or −20° C. (content, pH, HPLC area %); conditions: for level of impurity at RRT 0.98: 5 mg/mL solution pH 5.0
# Experimental: Enhanced stability was shown of the peptide formulation after 54 days of storage at 40° C. as a liquid solution with a concentration of 5 mg/mL of SEQ ID NO: 1 at pH of 5.0. FIG. 4 depict the overlaid chromatograph of SEQ ID NO: 1 after 7 days at 40° C. (bottom graph) and after 54 days at 40° C. (top graph).
# [4] = Example 4 stability of concentrated saline pH 5.0 solutions at −20° C. or 40° C./75% RH: Visual Appearance (method 25481)
# Experimental: as §1
# [5] = solid form, Batch 2K18005, t=0 baseline prior to storage
# [6] = solid form, after 3 years at −20° C.
# [7] = 15.3 mg/mL solution, 40° C. and 75% RH, 1 Month
# [8] = 15.3 mg/mL solution, 40° C. and 75% RH, 2 Month
# [9] = 15.3 mg/mL solution, 40° C. and 75% RH, 3 Month
# [10] = 15.3 mg/mL solution, 40° C. and 75% RH, 6 Month
# [11] = 15.3 mg/mL solution, −20° C., 0 Month
# [12] = 15.3 mg/mL solution, −20° C., 1 Month
# [13] = 15.3 mg/mL solution, −20° C., 2 Month
# [14] = 15.3 mg/mL solution, −20° C., 3 Month
# [15] = 15.3 mg/mL solution, −20° C., 6 Month
# [16] = 36.7 mg/mL solution, 40° C. and 75% RH, 1 Month
# [17] = 36.7 mg/mL solution, 40° C. and 75% RH, 2 Month
# [18] = 36.7 mg/mL solution, 40° C. and 75% RH, 3 Month
# [19] = 36.7 mg/mL solution, 40° C. and 75% RH, 6 Month
# [20] = 36.7 mg/mL solution, −20° C., 0 Month
# [21] = 36.7 mg/mL solution, −20° C., 1 Month
# [22] = 36.7 mg/mL solution, −20° C., 2 Month
# [23] = 36.7 mg/mL solution, −20° C., 3 Month
# [24] = 36.7 mg/mL solution, −20° C., 6 Month
# [25] = 72.4 mg/mL solution, 40° C. and 75% RH, 1 Month
# [26] = 72.4 mg/mL solution, 40° C. and 75% RH, 2 Month
# [27] = 72.4 mg/mL solution, 40° C. and 75% RH, 3 Month
# [28] = 72.4 mg/mL solution, 40° C. and 75% RH, 6 Month
# [29] = 72.4 mg/mL solution, −20° C., 0 Month
# [30] = 72.4 mg/mL solution, −20° C., 1 Month
# [31] = 72.4 mg/mL solution, −20° C., 2 Month
# [32] = 72.4 mg/mL solution, −20° C., 3 Month
# [33] = 72.4 mg/mL solution, −20° C., 6 Month
substance,measurement,setting,value
RRWVRRVRRVWRRVVRVVRRWVRR-NH2 [SEQ ID NO: 1],stability on storage,"[1]; dry powder in a glass vial, 3 years at −20° C.",stable
same,area percent of the SEQ ID NO: 1 (HPLC),"[1]; solid form, Batch 2K18005, after 3 years of storage at −20° C.",97.87 area percent
same,area percent of the SEQ ID NO: 1 (HPLC),[1]; [5],99.09 area percent
same,"area percent of the impurity, RTT 1.03",[1]; [5],0.91 area percent
same,"area percentage of impurity, RTT 0.99",[1]; [6],0.09 area percent
same,"area percentage of impurity, RTT 1.02",[1]; [6],1.28 area percent
same,"area percentage of impurity, RTT 1.03",[1]; [6],0.41 area percent
same,"area percentage of impurity, RTT 1.04",[1]; [6],0.19 area percent
same,"area percentage of impurity, RTT 1.05",[1]; [6],0.15 area percent
same,UV-Vis Assay,[2]; [7],102.0%
same,UV-Vis Assay,[2]; [8],102.2%
same,UV-Vis Assay,[2]; [9],103.9%
same,UV-Vis Assay,[2]; [10],102.5%
same,UV-Vis Assay,[2]; [11],102.0%
same,UV-Vis Assay,[2]; [12],101.5%
same,UV-Vis Assay,[2]; [13],104.0%
same,UV-Vis Assay,[2]; [14],105.1%
same,UV-Vis Assay,[2]; [15],103.9%
same,UV-Vis Assay,"[2]; 15.3 mg/mL solution, −20° C., 9 Month",103.1%
same,UV-Vis Assay,[2]; [16],100.3%
same,UV-Vis Assay,[2]; [17],101.3%
same,UV-Vis Assay,[2]; [18],99.2%
same,UV-Vis Assay,[2]; [19],100.1%
same,UV-Vis Assay,[2]; [20],98.1%
same,UV-Vis Assay,[2]; [21],100.0%
same,UV-Vis Assay,[2]; [22],100.6%
same,UV-Vis Assay,[2]; [23],101.7%
same,UV-Vis Assay,[2]; [24],99.5%
same,UV-Vis Assay,"[2]; 36.7 mg/mL solution, −20° C., 9 Month",100.3%
same,UV-Vis Assay,[2]; [25],97.8%
same,UV-Vis Assay,[2]; [26],98.6%
same,UV-Vis Assay,[2]; [27],93.4%
same,UV-Vis Assay,[2]; [28],95.4%
same,UV-Vis Assay,[2]; [29],90.1%
same,UV-Vis Assay,[2]; [30],97.6%
same,UV-Vis Assay,[2]; [31],98.2%
same,UV-Vis Assay,[2]; [32],94.5%
same,UV-Vis Assay,[2]; [33],97.0%
same,UV-Vis Assay,"[2]; 72.4 mg/mL solution, −20° C., 9 Month",99.0%
same,UV-Vis Assay,"[2]; 81.4 mg/mL solution, −20° C., 0 Month",105.0 % LC
same,level of impurity at RRT 0.98,[3]; 7 days at 40° C.,0.4%
same,level of impurity at RRT 0.98,[3]; 54 days at 40° C.,1.1%
same,Main peak SEQ ID NO: 1 area %,[3]; 7 days/40° C.,97.2% and 97.1%
same,SEQ ID NO: 1 content,[3]; 7 days/40° C.,5.05 mg/mL and 5.11 mg/mL
same,Solution pH,[3]; 7 days/40° C.,4.98 and 5.02
same,Main peak SEQ ID NO: 1 area %,[3]; 7 days/−20° C.,97.2%
same,SEQ ID NO: 1 content,[3]; 7 days/−20° C.,5.11 mg/mL
same,Main peak SEQ ID NO: 1 area %,[3]; 14 days/40° C.,96.2% and 94.7%
same,SEQ ID NO: 1 content,[3]; 14 days/40° C.,5.05 mg/mL and 5.01 mg/mL
same,Solution pH,[3]; 14 days/40° C.,5.01 and 5.00
same,SEQ ID NO: 1 content,[3]; 14 days/−20° C.,5.08 mg/mL
same,Solution pH,[3]; 14 days/−20° C.,4.97
same,Main peak SEQ ID NO: 1 area %,[3]; 54 days/40° C.,95.6%
same,SEQ ID NO: 1 content,[3]; 54 days/40° C.,4.99 mg/mL
same,Solution pH,[3]; 54 days/40° C.,4.96
same,Main peak SEQ ID NO: 1 area %,[3]; 54 days/−20° C.,96.9%
same,Area % of concurrent analytical standard,[3]; standard run with the 7 days samples,97.1 ± 0.4%
same,Area % of concurrent analytical standard,[3]; standard run with the 14 days samples,95.5 ± 0.5%
same,Area % of concurrent analytical standard,[3]; standard run with the 54 days samples,96.8 ± 0.8%
same,Visual Appearance,[4]; [7],"Clear, colorless liquid. Free of visible particulates."
same,Visual Appearance,[4]; [8],"Clear, colorless liquid. Free of visible particulates."
same,Visual Appearance,[4]; [9],"Clear, colorless liquid. Free of visible particulates."
same,Visual Appearance,[4]; [10],"Clear, colorless liquid. Free of visible particulates,"
same,Visual Appearance,[4]; [11],"Clear, colorless liquid. Free of visible particulates."
same,Visual Appearance,[4]; [12],"Clear, colorless liquid. Free of visible particulates."
same,Visual Appearance,[4]; [13],"Clear, colorless liquid. Free of visible"
same,Visual Appearance,[4]; [14],"Clear, colorless liquid. Free of visible particulates."
same,Visual Appearance,[4]; [15],"Clear, colorless liquid. Free of visible particulates,"
same,Visual Appearance,[4]; [16],"Clear, colorless liquid"
same,Visual Appearance,[4]; [17],"Clear, colorless liquid"
same,Visual Appearance,[4]; [18],"Clear, colorless liquid"
same,Visual Appearance,[4]; [19],"Clear, colorless liquid, free"
same,Visual Appearance,[4]; [20],"Clear, colorless liquid."
same,Visual Appearance,[4]; [21],"Clear, colorless liquid."
same,Visual Appearance,[4]; [22],"Clear, colorless liquid."
same,Visual Appearance,[4]; [23],"Clear, colorless liquid."
same,Visual Appearance,[4]; [24],"Clear, colorless liquid, free"
same,Visual Appearance,[4]; [25],"Clear, colorless liquid"
same,Visual Appearance,[4]; [26],"Clear, colorless liquid"
same,Visual Appearance,[4]; [27],"Clear, colorless liquid"
same,Visual Appearance,[4]; [28],"Clear, slightly yellow liquid, free"
same,Visual Appearance,[4]; [29],"Clear, colorless liquid"
same,Visual Appearance,[4]; [30],"Clear, colorless liquid"
same,Visual Appearance,[4]; [31],"Clear, colorless liquid"
same,Visual Appearance,[4]; [32],"Clear, colorless liquid"
same,Visual Appearance,[4]; [33],"Clear, colorless liquid, free"
same,Visual Appearance,"[4]; 81.4 mg/mL solution, 40° C. and 75% RH, 1 Month","Clear, yellow liquid"
same,Visual Appearance,"[4]; 81.4 mg/mL solution, 40° C. and 75% RH, 3 Month","stopper Solution: Clear, yellow"
same,Visual Appearance,"[4]; 81.4 mg/mL solution, −20° C., 1 Month","Clear, colorless liquid"
same,Visual Appearance,"[4]; 81.4 mg/mL solution, −20° C., 2 Month","a clear colorless liquid, visibly"
same,Visual Appearance,"[4]; 81.4 mg/mL solution, −20° C., 3 Month","rubber stopper Solution: Clear, colorless liquid,"
